Experimental data as given in publication PMC8091115, “Redundancy in Aromatic O-Demethylation and Ring-Opening Reactions in Novosphingobium aromaticivorans and Their Impact in the Metabolism of Plant-Derived Phenolics” (Applied and Environmental Microbiology, 2021).

Legend:
LigM = target: T1, LigM (Novosphingobium aromaticivorans, UniProt Q2G4C6); assay: HPLC-MS substrate depletion and product formation; assay type: biochemical; conditions: tetrahydrofolate as methyl acceptor, anaerobic, 30 C, phosphate buffer
T1 construct: gene Saro_2861; full length, N-terminal His8-TEV tag cleaved, from E. coli B834

DesA = target: T2, DesA (Novosphingobium aromaticivorans, UniProt Q2G5N3); assay: HPLC-MS substrate depletion and product formation; assay type: biochemical; conditions: tetrahydrofolate as methyl acceptor, anaerobic, 30 C, phosphate buffer
T2 construct: gene Saro_2404; full length, N-terminal His8-TEV tag cleaved, from E. coli B834; b91 prints Saro_2402 (probable misprint, Saro_2404 everywhere else)
T2 sequence (Q2G5N3 entry or part of it): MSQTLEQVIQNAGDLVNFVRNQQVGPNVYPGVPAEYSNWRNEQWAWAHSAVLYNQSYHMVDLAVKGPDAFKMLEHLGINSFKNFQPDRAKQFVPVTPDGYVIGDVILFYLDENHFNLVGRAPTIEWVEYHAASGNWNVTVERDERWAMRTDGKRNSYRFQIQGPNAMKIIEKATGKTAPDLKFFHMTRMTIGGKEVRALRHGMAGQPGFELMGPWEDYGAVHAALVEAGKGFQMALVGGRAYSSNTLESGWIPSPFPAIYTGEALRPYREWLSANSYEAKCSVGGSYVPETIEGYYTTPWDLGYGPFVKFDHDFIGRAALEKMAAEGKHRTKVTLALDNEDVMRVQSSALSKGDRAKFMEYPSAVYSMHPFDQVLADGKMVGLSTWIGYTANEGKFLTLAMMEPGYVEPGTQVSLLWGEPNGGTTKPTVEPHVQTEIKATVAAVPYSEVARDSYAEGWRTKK

T1 sequence (Q2G4C6 entry or part of it): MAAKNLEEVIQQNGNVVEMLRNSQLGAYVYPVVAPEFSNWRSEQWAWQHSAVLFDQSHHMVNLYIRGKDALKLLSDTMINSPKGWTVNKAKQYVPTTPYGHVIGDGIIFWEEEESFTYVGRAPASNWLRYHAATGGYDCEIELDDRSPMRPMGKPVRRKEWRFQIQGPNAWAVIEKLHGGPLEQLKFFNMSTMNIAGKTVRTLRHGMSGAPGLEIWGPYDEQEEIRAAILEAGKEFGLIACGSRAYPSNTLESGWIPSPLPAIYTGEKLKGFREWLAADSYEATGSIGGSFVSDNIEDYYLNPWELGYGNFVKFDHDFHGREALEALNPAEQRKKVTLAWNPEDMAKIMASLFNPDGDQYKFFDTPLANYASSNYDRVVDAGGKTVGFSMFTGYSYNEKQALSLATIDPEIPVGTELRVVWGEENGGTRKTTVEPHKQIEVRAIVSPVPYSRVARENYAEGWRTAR

Row | SMILES | HPLC-MS substrate depletion and product formation (LigM) | HPLC-MS substrate depletion and product formation (DesA)
1 | COc1cc(C(=O)O)cc(O)c1O [3-MGA] | LigM protein of N. aromaticivorans was able to convert 3-MGA into GA | –
2 | COc1cc(C(=O)O)ccc1O [vanillic acid] | able to convert 3-MGA into GA and vanillic acid into PCA at comparable rates | demethylated both syringic acid and, somewhat more slowly, vanillic acid
